This assay addresses T1, hM5 (human Muscarinic receptor subtype 5) (Homo sapiens, UniProt P08912).
T1 construct: expressed in transfected cells; host or cells: CHO cells (Chinese hamster ovary cells, ATCC)
T1 sequence (P08912 1-532): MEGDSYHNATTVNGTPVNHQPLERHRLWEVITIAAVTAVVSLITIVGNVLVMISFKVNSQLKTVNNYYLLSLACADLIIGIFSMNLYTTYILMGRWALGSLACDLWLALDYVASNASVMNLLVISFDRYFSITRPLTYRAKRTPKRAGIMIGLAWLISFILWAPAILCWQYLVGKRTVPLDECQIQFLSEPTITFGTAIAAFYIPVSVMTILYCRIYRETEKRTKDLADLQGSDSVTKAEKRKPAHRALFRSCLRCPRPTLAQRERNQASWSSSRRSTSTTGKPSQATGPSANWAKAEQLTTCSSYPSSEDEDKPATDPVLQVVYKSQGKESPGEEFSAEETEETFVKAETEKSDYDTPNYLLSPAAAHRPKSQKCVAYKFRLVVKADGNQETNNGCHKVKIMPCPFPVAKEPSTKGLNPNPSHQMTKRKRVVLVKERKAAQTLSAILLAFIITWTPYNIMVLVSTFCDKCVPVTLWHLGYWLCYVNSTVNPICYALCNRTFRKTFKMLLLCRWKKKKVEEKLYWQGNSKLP
As to the kind of experiment: Human M5 calcium mobilization FLIPR assay. Conditions: CHO cells expressing hM5, Ca2+ release. The class given is cell-based. On the procedure: Biological Evaluation Human M1, Rat M1, Human M3 and Human M5 Calcium Mobilization FLIPR™ Assay
The compound activity in the present invention (EC50 or IC50) was measured using a 384 plate-based imaging assay that monitors drug induced intracellular Ca^2+ release in whole cells. Activation of hM1 (human Muscarinic receptor subtype 1, gene bank access NM_000738), rM1 (rat Muscarinic receptor subtype 1, gene bank access NM_080773), hM3 (human Muscarinic receptor subtype 3, gene bank access NM_000740NM_000740) and hM5 (human Muscarinic receptor subtype 5, gene bank access NM_0121258), receptors expressed in CHO cells (Chinese hamster ovary cells, ATCC) was quantified in a Molecular Devices FLIPR II™ instrument as an increase in fluorescent signal. Inhibition of hM3 and hM5 by compounds was determined by the decrease in fluorescent signal in response to 20 nM carbachol activation.
CHO cells were plated in 384-black polylysine coated plate (Costar) at 8000 cells/well/50 μl for 24 hours or 4000 cells/well for 48 hours in a humidified incubator (5% CO2 and 37° C.) in DMEM/F12 medium without selection agent. Prior to the experiment the cell culture medium was removed from the plates by inversion. A loading solution of 30 μl of Hank's balanced salt solution, 10 mM Hepes and 2.5 mM Probenicid at Ph 7.4 (Cat no. 311-520-VL, Wisent) with 2 μM calcium indicator dye (FLUO-3AM, Molecular Probes F14202) was added to each well. Plates were incubated at 37° C. for 60 minutes prior to start the experiment. The incubation was terminated by washing the cells four times in assay buffer, leaving a residual 25 μl buffer per well. Cell plates were then transferred to the FLIPR, ready for compound additions.
The day of experiment, carbachol and compounds were diluted in three-fold concentration range (10 points serial dilution) for addition by FLIPR instrument. For all calcium assays, a baseline reading was taken for 30 seconds followed by the addition of 12.5 μl (25 μl for hM1 and rM1) of compounds, resulting in a total well volume of 37.5 μl (50 μl for hM1 and rM1). Data were collected every 1.6 seconds for 300 seconds. For hM3 and hM5 an additional 12.5 μl of carbachol (20 nM final) was added at 300 seconds. After this addition of carbachol (producing a final volume of 50 μl), the FLIPR continued to collect data every 2 seconds for 240 seconds. The fluorescence emission was read using filter 1 (emission 520-545 nm) by the FLIPR on board CCD camera.
Calcium mobilization output data were calculated as the maximal relative fluorescence unit (RFU) minus the minal value for both compound and agonist reading frame (except for hM1 and rM1 using only the maximal RFU). Data were analyzed using sigmoidal fits of a non-linear curve-fitting program (XLfit version 5.0.6 from ID Business Solutions Limited, Guildford, UK). All EC50 and IC50 values are reported as arithmetic means±standard error of mean of ‘n’ independent experiments.
A general note: Calcium assays in cells follow changes in intracellular calcium, usually with a dye or a luminescent sensor.

pEC50: −log10 of the molar value.

As usually defined, the pEC50 is the EC50 on a negative log10 scale, so that one unit is a factor of ten. As for `CCOC(=O)N1CCC(N2CCC(N3C(=O)N[C@H]4CCCC[C@@H]43)CC2)CC1`, the negative-log EC50 (pEC50) is 6.66.

On to `CCOC(=O)N1CC[C@H](N2CCC(N3C(=O)N[C@H]4CCCC[C@@H]43)CC2)C1`, for which the pEC50 is 5.41.

Turning to `COc1ccccc1C(=O)N1CCC(N2CCC(N3C(=O)N[C@@H]4CCCC[C@H]43)CC2)CC1`, the pEC50 is below 4.40.

As to `CC(C)OC(=O)N1CCC(N2CCC(N3C(=O)N[C@H]4CCCC[C@@H]43)CC2)CC1`, the pEC50 is 7.44.

For `CC(C)OC(=O)N1CCC(N2CCC(N3C(=O)N[C@@H]4CCCC[C@@H]43)CC2)CC1`, the pEC50 is 7.14.

For the molecule `O=C1CCCN1CCC(=O)N1CCC(N2CCC(N3C(=O)N[C@H]4CCCC[C@@H]43)CC2)CC1`, the pEC50 was 5.80.

`O=C(C1CC1)N1CCC(N2CCC(N3C(=O)N[C@@H]4CCCC[C@H]43)CC2)CC1`: the pEC50 is below 4.40.

For `O=C1CCCN1CCC(=O)N1CCC(N2CCC(N3C(=O)N[C@@H]4CCCC[C@H]43)CC2)CC1`, the negative-log EC50 (pEC50) is 5.62.

Turning to `O=C(C1CCCC1)N1CCC(N2CCC(N3C(=O)N[C@H]4CCCC[C@@H]43)CC2)CC1`, the pEC50 is below 4.40.

`CN1C(=O)N(C2CCN(C3CCN(C(=O)C4CC4)CC3)CC2)[C@H]2CCCC[C@@H]21`: the pEC50 was below 4.40.

Consider `CC(C)OC(=O)N1CCC(N2CCC(N3C(=O)C[C@H]4CCCC[C@@H]43)CC2)CC1`, for which the negative-log EC50 (pEC50) is below 4.40.
